The target of assay [1] is T1, ALDH1A3 (Homo sapiens, UniProt P47895).
T1 sequence (P47895 1-512): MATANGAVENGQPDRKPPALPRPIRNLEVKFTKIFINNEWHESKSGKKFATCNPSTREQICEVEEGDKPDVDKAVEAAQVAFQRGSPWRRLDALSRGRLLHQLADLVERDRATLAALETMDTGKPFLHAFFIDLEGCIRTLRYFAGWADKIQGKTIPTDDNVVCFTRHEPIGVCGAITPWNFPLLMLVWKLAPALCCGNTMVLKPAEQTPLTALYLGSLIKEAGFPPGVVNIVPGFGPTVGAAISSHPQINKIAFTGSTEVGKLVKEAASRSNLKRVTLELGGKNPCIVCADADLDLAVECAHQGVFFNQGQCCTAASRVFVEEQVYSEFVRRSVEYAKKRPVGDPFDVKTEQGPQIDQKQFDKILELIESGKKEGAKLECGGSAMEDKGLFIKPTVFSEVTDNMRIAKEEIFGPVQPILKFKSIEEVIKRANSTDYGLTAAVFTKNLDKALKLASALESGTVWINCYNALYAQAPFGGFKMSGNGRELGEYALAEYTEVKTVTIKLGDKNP
The assay can be described thus: ALDH1A3 cellular assay (ALDEFLUOR) in WM266.4 melanoma cells. Format: cell-based. Conditions: WM266.4 cells; 60 min incubation; percentage of ALDH-positive cells. From the text: Materials: WM266.4 cells were procured from ATCC. (WM266-4 is a metastatic human melanoma cell line.) The ALDEFLUOR™ Assay kit (cat. no. 01700) and Aldefluor buffer (cat. no. 01702) were procured from StemCell Technologies. Dulbecco's Modified Eagle Medium (DMEM), FluoroBrite DMEM, Glutamax and Hoechst 33342 were purchased from ThermoFisher. Verapamil was obtained from Fluorochem. FBS was obtained from Sigma. Echo Qualified 384-well low-dead-volume microplate and Echo Qualified 384-well polypropylene microplate were purchased from Labcyte, and the Microclear black sterile polystyrene microplate from Greiner Bio-One.
Method: Intracellular inhibition of ALDH1A3 was assessed using the ALDEFLUOR™ Assay kit. The activated ALDEFLUOR™ reagent, BODIPY-aminoacetaldehyde (BAAA), is a fluorescent non-toxic substrate for ALDH enzymes, which freely diffuses into intact and viable cells. In the presence of ALDH enzyme activity, BAAA is converted into BODIPY-aminoacetate (BAA), which is retained inside the cells. The amount of fluorescent reaction product is proportional to the ALDH activity in the cells and is measured using an imaging cytometer. Active efflux of the reaction product is inhibited by an efflux inhibitor (Verapamil) in the ALDEFLUOR™ Assay Buffer.
A frozen vial of cells was recovered into a T225 flask containing DMEM, high glucose, 10% FBS, 1% glutamax, 1% HEPES. The following day, media was changed and cells were ready for assay from 72 hours after recovery. Cells were transferred into FluoroBrite DMEM (plus 10% FBS, 1% glutamax and 1% HEPES) and diluted to 2.5×10^5 cells/mL. 30 μL of cells were added to each well to give 7500 cells/well and then incubated overnight at 37° C., 5% CO2. After overnight incubation, the media was aspirated and replaced by 20 μL substrate/Hoechst buffer solution. Each plate requires 9 mL of solution comprising, 9 mL ALDEFLUOR assay buffer, 18 μL BAAA substrate (final concentration 500 nM), 4.5 μL Hoechst 33342 (final concentration 5 μg/mL) and 4.5 μL Verapamil (final concentration 50 μM). Compounds were prepared for dosing using the Echo acoustic dispenser by aliquoting into a source plate and dosed directly onto the cell assay plate to give a 10 point dose response per compound ranging from 10 μM to 0.0005 μM final concentration in 3-fold dilution steps. Plates were then incubated for 60 minutes at 37° C., 5% CO2. The buffer was then aspirated and cells washed twice in ice-cold PBS. Plates were kept on ice and 30 μL of cold Aldefluor buffer with 50 μM verapamil dispensed per well. The plates were then imaged using the CellInsight fluorescent microscope. Hoechst fluorescence in the 405 nm channel indicated the nuclear area and this was used to define nuclei and then the surrounding cellular area. Fluorescence in the 488 nm channel of the defined cellular area indicates ALDH1A3 activity. The percentage of cells positive for ALDH activity was plotted versus compound concentration to generate EC50 values using curve fitting parameters defined in Dotmatics software.

The target of assay [2] is T1, ALDH1A3. The experiment in a line: Primary biochemical assay, NAD(P)H-Glo Detection System. Also on record: His-tag; made in house; host or cells: E. coli Rosetta (DE3). Conditions: 30 min pre-incubation, propionaldehyde and NAD at Km. From the text: Cloning: Open reading frames corresponding to the protein coding sequences of full length human ALDH1A1 (Uniprot ID P00352), ALDH1A2 (094788) and ALDH1A3 (P47895) were polymerase chain reaction (PCR) amplified from human cDNA and inserted into the multi-cloning sites of the commercially available (Novagen) E. coli expression vectors pET47b (ALDH1A1, EcoRI restriction site; ALDH1A2, BamHI and EcoRI sites) or pET28a (ALDH1A3, NdeI and BamHI sites), using standard molecular genetic techniques. Recombinant DNA products were sequence verified prior to use in expression studies.
Expression: Expression constructs were transformed into the E. coli strain Rosetta (DE3) (Merck) and individual colonies used to inoculate 10 mL lysogen broth (LB) medium supplemented with kanamycin and chloramphenicol at 50 μg/mL and 34 μg/mL, respectively. Cultures were grown to saturation overnight at 37° C., prior to being used to sub-inoculate fresh 1 L LB medium cultures (plus antibiotics, as before). 1 L cultures were grown at 37° C., 200 rpm, throughout the day until the optical density at 600 nm (OD600) reached ˜0.8, at which point growth temperature was reduced to 18° C. and 1 mM isopropyl β-d-1-thiogalacto pyranoside (IPTG) added to induce protein expression.
Cultures were left overnight (at least 16 h) under these conditions and the following day harvested by centrifugation (4000 G, 10 minutes). Culture supernatant was discarded and cell pellets stored at −80° C. until further processing.
Purification: Cell pellets were thawed on ice, re-suspended in Ni Affinity Buffer A (20 mM HEPES pH 7.5, 300 mM NaCl, 20 mM imidazole, 1 mM tris(2-carboxyethyl)phosphine (TCEP)) with protease inhibitors (cOmplete Ultra protease inhibitor, Roche), and lysed by sonication. Lysates were clarified by centrifugation at 18,000 G, 4° C., for 40 minutes, and loaded directly onto a pre-equilibrated (Buffer A) 5 mL HisTrap Fast Flow column (GE Healthcare) by way of an AKTA Fast Protein Liquid Chromatography (FPLC) system. The column was sequentially treated with 6 column volumes (CV) 100% Buffer A, 8 CV of 90% Buffer A:10% Buffer B (20 mM 4-(2-hydroxyethyl)-1-piperazineethanesulfonic acid (HEPES) pH 7.5, 300 mM NaCl, 500 mM imidazole, 1 mM TCEP) and finally a linear gradient from 10-70% Buffer B over 8 CV to elute recombinant His-tagged protein. Relevant fractions (as measured by 280 nm absorbance) collected during elution were pooled and subjected to further purification by size exclusion chromatography (Superdex 200 26/600, GE Healthcare, running buffer 20 mM 2-(carbamoylmethylamino)ethanesulfonic acid (ACES) pH 7.5, 1 mM TCEP). Relevant fractions from this step were pooled, aliquoted, and stored at −80° C. until required for compound profiling assays.
Materials: ALDH2 was purchased from Abnova. Tris(hydroxymethyl)aminomethane (Tris) was purchased from MP Biomedicals. TCEP, ethylenediaminetetraacetic acid (EDTA), propionaldehyde, DMSO and Tween-20 were purchased from Sigma. Nicotinamide adenine dinucleotide (NAD) was obtained from Abcam. The NAD(P)H-Glo™ Detection System was purchased from Promega. White, non-binding surface, 384 well plates were supplied by Corning (#3574).
Method: Inhibition of ALDH1A3 was assessed using the NAD(P)H-Glo™ Detection System (Cat. No. G9062) from Promega. This assay detects the production of NADH from NAD by ALDH1A3 via the coupled enzymatic conversion of a proluciferin reductase substrate to generate a luminescent signal. Inhibition of ALDH1A3 by small molecule inhibitors will result in reduction or abrogation of luminescence signal increase above background. Inhibition of ALDH1A1, ALDH1A2 and ALDH2 (selectivity assays) were assessed using the same assay.
Compounds were dosed into Corning 384 well assay plates using an Echo acoustic dispenser to give 10 point curves in a 3-fold dilution series. Compounds were dispensed from a 20 mM DMSO stock and initially screened at a top concentration of 20 μM (ALDH1A3) or 250 μM (ALDH1A1, ALDH1A2 & ALDH2). […]

What is called IC50 is the concentration at which inhibition is half-maximal. The low end stands for greater potency, the high end for weaker potency. Turning to `O=C1CCc2cc(NC(=O)c3ncccc3-c3cccc(F)c3)ccc2N1` [ALDHI-1020, 3-(3-fluorophenyl)-N-(2-oxo-3,4-dihydro-1H-quinolin-6-yl)pyridine-2-carboxamide], the IC50 in assay [1] and in assay [2] was 1 to 10 µM throughout.
